Reference: US9540392B2, “Thienopyrimidines” (BAYER PHARMA AKTIENGESELLSCHAFT, priority 2012, dated 2017)
pIC50: −log10 of the molar value.

biological target: T1, human full-length MKNK1 (Homo sapiens, UniProt Q9BUB5, T385D); assay: MKNK1 kinase high ATP assay (TR-FRET); assay type: biochemical; settings: not given
T1 construct: GST (N); purchased Carna Biosciences 02-145; host or cells: insect cells (baculovirus expression system)
Outline: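 Compound was preincubated 15 min at 22° C. with MKNK1 in 50 mM HEPES pH 7.5, 5 mM MgCl2, 1.0 mM DTT, then the reaction ran 30 min at 22° C. with 2 mM ATP and 0.06 μM biotinylated peptide (final).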

T1 sequence (Q9BUB5 1-424 isoform Q9BUB5-2 T344D): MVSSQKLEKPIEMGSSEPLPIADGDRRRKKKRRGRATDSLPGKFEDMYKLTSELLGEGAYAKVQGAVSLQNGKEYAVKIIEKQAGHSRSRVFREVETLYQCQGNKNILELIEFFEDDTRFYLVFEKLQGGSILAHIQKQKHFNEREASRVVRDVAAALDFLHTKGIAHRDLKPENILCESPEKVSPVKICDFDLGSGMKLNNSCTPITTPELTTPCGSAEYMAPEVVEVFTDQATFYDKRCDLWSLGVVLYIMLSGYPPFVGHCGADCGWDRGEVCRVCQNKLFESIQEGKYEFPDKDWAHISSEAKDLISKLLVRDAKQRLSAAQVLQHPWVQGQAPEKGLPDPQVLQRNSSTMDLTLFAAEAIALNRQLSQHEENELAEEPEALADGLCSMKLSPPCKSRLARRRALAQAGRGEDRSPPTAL

| Structure (SMILES) | pIC50 |
| --- | --- |
| COc1cc2[nH]ncc2cc1Nc1ncnc2sc3c(c12)CCC(C(=O)N1CCC(=O)CC1)C3 (racemic) [Example 174, (RS)-1-({4-[(6-Methoxy-1H-indazol-5-yl)amino]-5,6,7,8-tetrahydro[1]benzothieno[2,3-d]pyrimidin-7-yl}carbonyl)piperidin-4-one] | 9.22 |
| CCOc1cc2[nH]ncc2cc1Nc1ncnc2sc3c(c12)CCC(C(=O)N1CCC(=O)CC1)C3 (racemic) [Example 211, (RS)-1-({4-[(6-Ethoxy-1H-indazol-5-yl)amino]-5,6,7,8-tetrahydro[1]benzothieno[2,3-d]pyrimidin-7-yl}carbonyl)piperidin-4-one] | 9.30 |

same assay, conditions: 2 mM ATP, after preincubation with MKNK1; read-out: MKNK1 IC50 (MKNK1 high ATP)

| Structure (SMILES) | pIC50 |
| --- | --- |
| CN(Cc1cnn(C)c1)C(=O)C1CCc2c(sc3ncnc(Nc4ccc5[nH]ncc5c4)c23)C1 (racemic) [Example 157, (RS)-4-(1H-indazol-5-ylamino)-N-methyl-N-[(1-methyl-1H-pyrazol-4-yl)methyl]-5,6,7,8-tetrahydro[1]benzothieno[2,3-d]pyrimidine-7-carboxamide] | 7.42 |
| CN(C)C(=O)N1CCN(C(=O)C2CCc3c(sc4ncnc(Nc5ccc6[nH]ncc6c5)c34)C2)CC1 (racemic) [Example 126, (RS)-4-{[4-(1H-indazol-5-ylamino)-5,6,7,8-tetrahydro[1]benzothieno[2,3-d]pyrimidin-7-yl]carbonyl}-N,N-dimethylpiperazine-1-carboxamide] | 7.83 |
| CN(C)C(=O)C1CCc2c(sc3ncnc(Nc4cc5cn[nH]c5cc4OCCCCl)c23)C1 (racemic) [Example 267, (RS)-4-{[6-(3-Chloropropoxy)-1H-indazol-5-yl]amino}-N,N-dimethyl-5,6,7,8-tetrahydro[1]benzothieno[2,3-d]pyrimidine-7-carboxamide] | 8.66 |
| O=C(C1CCc2c(sc3ncnc(Nc4ccc5[nH]ncc5c4)c23)C1)N1CCN(Cc2ccccn2)CC1 (racemic) [Example 154, (RS)-[4-(1H-indazol-5-ylamino)-5,6,7,8-tetrahydro[1]benzothieno[2,3-d]pyrimidin-7-yl][4-(pyridin-2-ylmethyl)piperazin-1-yl]methanone] | 7.54 |
| CCN(CCO)C(=O)C1CCc2c(sc3ncnc(Nc4cc5cn[nH]c5cc4OC)c23)C1 (racemic) [Example 171, (RS)—N-Ethyl-N-(2-hydroxyethyl)-4-[(6-methoxy-1H-indazol-5-yl)amino]-5,6,7,8-tetrahydro[1]benzothieno[2,3-d]pyrimidine-7-carboxamide] | 9.40 |
| O=C(C1CCc2c(sc3ncnc(Nc4ccc5[nH]ncc5c4)c23)C1)N1CCN(Cc2cccnc2)CC1 (racemic) [Example 155, (RS)-[4-(1H-indazol-5-ylamino)-5,6,7,8-tetrahydro[1]benzothieno[2,3-d]pyrimidin-7-yl][4-(pyridin-3-ylmethyl)piperazin-1-yl]methanone] | 7.74 |
| O=C(CN1CCN(C(=O)C2CCc3c(sc4ncnc(Nc5ccc6[nH]ncc6c5)c34)C2)CC1)N1CCCC1 (racemic) [Example 201, (RS)-2-(4-{[4-(1H-indazol-5-ylamino)-5,6,7,8-tetrahydro[1]benzothieno[2,3-d]pyrimidin-7-yl]carbonyl}piperazin-1-yl)-1-(pyrrolidin-1-yl)ethanone] | 7.74 |
| CC(C)(C)CNC(=O)C1CCc2c(sc3ncnc(Nc4ccc5[nH]ncc5c4)c23)C1 (racemic) [Example 113, (RS)-N-(2,2-dimethylpropyl)-4-(1H-indazol-5-ylamino)-5,6,7,8-tetrahydro[1]benzothieno[2,3-d]pyrimidine-7-carboxamide] | 7.69 |
| CCOc1cc2[nH]ncc2cc1Nc1ncnc2sc3c(c12)CCC(C(=O)N(CCOC)CCOC)C3 (racemic) [Example 252, (RS)-4-[(6-Ethoxy-1H-indazol-5-yl)amino]-N,N-bis(2-methoxyethyl)-5,6,7,8-tetrahydro[1]benzothieno[2,3-d]pyrimidine-7-carboxamide] | 8.66 |
| O=C(NCc1ccc(F)cc1)C1CCc2c(sc3ncnc(Nc4ccc5[nH]ncc5c4)c23)C1 (stereo not drawn) [Example 24, N-(4-Fluorobenzyl)-4-(1H-indazol-5-ylamino)-5,6,7,8-tetrahydro[1] benzothieno [2,3-d]pyrimidine-7-carboxamide] | 8.52 |
| CN(C)CCCNC(=O)C1CCc2c(sc3ncnc(Nc4ccc5[nH]ncc5c4)c23)C1 (stereo not drawn) [Example 40, N-[3-(Dimethylamino)propyl]-4-(1H-indazol-5-ylamino)-5,6,7,8-tetrahydro[1] benzothieno [2,3-d]pyrimidine-7-carboxamide] | 8.15 |
| CCOc1cc2[nH]ncc2cc1Nc1ncnc2sc3c(c12)CCC(C(=O)N(C)CCN)C3 (racemic) [Example 271, (RS)-5-({7-[(2-Ammonioethyl)(methyl)carbamoyl]-5,6,7,8-tetrahydro[1]benzothieno[2,3-d]pyrimidin-4-yl}amino)-6-ethoxy-1H-indazol-1-ium bis(trifluoroacetate)] | 9.40 |
| CC(C)Oc1cc2[nH]ncc2cc1Nc1ncnc2sc3c(c12)CCC(C(=O)N(C)C(C)C)C3 (racemic) [Example 215, (RS)—N-Methyl-N-(propan-2-yl)-4-{[6-(propan-2-yloxy)-1H-indazol-5-yl]amino}-5,6,7,8-tetrahydro[1]benzothieno[2,3-d]pyrimidine-7-carboxamide] | 9.30 |
| CN(C)CCNC(=O)C1CCc2c(sc3ncnc(Nc4ccc5[nH]ncc5c4)c23)C1 (stereo not drawn) [Example 38, N-[2-(Dimethylamino)ethyl]-4-(1H-indazol-5-ylamino)-5,6,7,8-tetrahydro[1] benzothieno [2,3-d]pyrimidine-7-carboxamide] | 8.22 |
| COc1cc2[nH]ncc2cc1Nc1ncnc2sc3c(c12)CCC(C(=O)N1C[C@@H](O)[C@H](O)C1)C3 (mixture of isomers) [Example 243, [(3R,4R)-3,4-Dihydroxypyrrolidin-1-yl]{(7RS)-4-[(6-methoxy-1H-indazol-5-yl)amino]-5,6,7,8-tetrahydro[1]benzothieno[2,3-d]pyrimidin-7-yl}methanone] | 9.52 |
| COc1cc2[nH]ncc2cc1Nc1ncnc2sc3c(c12)CCC(C(=O)N1CC2(COC2)C1)C3 (racemic) [Example 250, (RS)-{4-[(6-Methoxy-1H-indazol-5-yl)amino]-5,6,7,8-tetrahydro[1]benzothieno[2,3-d]pyrimidin-7-yl}(2-oxa-6-azaspiro[3.3]hept-6-yl)methanone] | 9.30 |
| CN(Cc1ccn(C)n1)C(=O)C1CCc2c(sc3ncnc(Nc4ccc5[nH]ncc5c4)c23)C1 (racemic) [Example 137, (RS)-4-(1H-indazol-5-ylamino)-N-methyl-N-[(1-methyl-1H-pyrazol-3-yl)methyl]-5,6,7,8-tetrahydro[1]benzothieno[2,3-d]pyrimidine-7-carboxamide] | 7.81 |
| COCCCN1CCN(C(=O)C2CCc3c(sc4ncnc(Nc5ccc6[nH]ncc6c5)c34)C2)CC1 (racemic) [Example 153, (RS)-[4-(1H-indazol-5-ylamino)-5,6,7,8-tetrahydro[1]benzothieno[2,3-d]pyrimidin-7-yl][4-(3-methoxypropyl)piperazin-1-yl]methanone] | 7.49 |
| CCOc1cc2[nH]ncc2cc1Nc1ncnc2sc3c(c12)CCC(C(=O)N(C)CCNC(=O)OC(C)(C)C)C3 (racemic) [Example 268, (RS)-tert-Butyl {2-[({4-[(6-ethoxy-1H-indazol-5-yl)amino]-5,6,7,8-tetrahydro[1]benzothieno[2,3-d]pyrimidin-7-yl}carbonyl)(methyl)amino]ethyl}carbamate] | 9.40 |
